Laboratory results from article PMC8583417, “Evaluation of the Antimicrobial Efficacy of N-Acetyl-L-Cysteine, Rhamnolipids, and Usnic Acid—Novel Approaches to Fight Food-Borne Pathogens” (International Journal of Molecular Sciences, 2021).

Columns and labels:
S. aureus 1241 [1] = test: MIC for biofilm metabolic activity (MTT reduction assay); format: cell-based, Staphylococcus aureus; conditions: ≥80% inhibition, 24 h
Method: (§1) Ten concentrations of NAC, RLs, and UA were tested to determine the minimum inhibitory concentration for planktonic growth, and subsequently, the six highest concentrations were applied on preformed biofilms to evaluate the biofilm eradication ability of the compounds. MIC was defined as the lowest substance concentration able to inhibit at least 80% of microbial growth (MICPC80 for planktonic cells, MICBC80 for further growth of biofilm cells), inhibit 80% of metabolic activity (MICBM80 for biofilm metabolic activity, MICMPB80 for metabolic activity of preformed biofilm), prevent biofilm formation by at least 80% (MICBF80 for biofilm formation), or reduce a preformed biofilm by at least 80% (MICBR80 for biofilm reduction). The results of MICs are summarized in Table 1 (planktonic cells) and Table 2 (biofilm-associated cells).
(§2) The determination of MICs was performed according to Chlumsky et al.. Briefly, 96-well flat-bottomed microtiter plates were inoculated with 75 µL (for biofilm formation) or 100 µL (for preformed biofilm) of bacterial suspension (A625nm 0.08 to 0.1) in technical triplicates and were then carefully mixed with the dilution series of the test substances (24 h cultivation at 25 °C for S. Infantis, 37 °C for other strains) or were directly cultivated to preform biofilms (18 h). For a positive control of bacterial growth, the inoculum was mixed with a pure sterile medium. […] To evaluate planktonic cells growth (MICPC80) and further growth of biofilm cells (MICBC80), the optical density of the content of the microtiter plates was measured spectrophotometrically at 625 nm before and after 24 h (for biofilm formation) of cultivation or before and after additional 20 h incubation with the tested compound (for preformed biofilm). […] To evaluate the inhibition of biofilm formation (MICBF80) and reduction in preformed biofilms (MICBR80), biomass was quantified using crystal violet staining, and its metabolic activity (MICBM80 and MICMPB80) was estimated by using the MTT (thiazyl tetrazolium bromide, Sigma-Aldrich, USA) reduction assay, both measured spectrophotometrically at 595 nm.
(§3) All inhibitions were calculated using the formula of Chlumsky et al. below (Equation (1)):(1) A625(595)nm inhibition (%)=A625(595)nm (control) – A625(595)nm(natural substance)/A625(595)nm (control)× 100 where A625(595)nm (control) is the absorbance of bacterial suspension/biofilm itself, and A625(595)nm(natural substance) is the absorbance of the bacterial suspension/biofilm with the added natural substance (NAC, RLs, and UA).
(§4) When the minimum inhibitory concentration could not be determined, the MIC was established as >the highest tested concentration for NAC, RLs, and UA.

S. aureus 816 = test: as above; format: cell-based, Staphylococcus aureus; conditions: ≥80% inhibition, 24 h
Method: as §1, §2, §3, §4

L. monocytogenes 149 = test: as above; format: cell-based, Listeria monocytogenes; conditions: ≥80% inhibition, 24 h
Method: as §1, §2, §3, §4

L. monocytogenes 164 = test: as above; format: cell-based, Listeria monocytogenes; conditions: ≥80% inhibition, 24 h
Method: as §1, §2, §3, §4

S. Infantis S59 = test: as above; format: cell-based, Salmonella enterica Infantis; conditions: for MICBM80: ≥80% inhibition, 24 h
Method: as §1
The determination of MICs was performed according to Chlumsky et al.. Briefly, 96-well flat-bottomed microtiter plates were inoculated with 75 µL (for biofilm formation) or 100 µL (for preformed biofilm) of bacterial suspension (A625nm 0.08 to 0.1) in technical triplicates and were then carefully mixed with the dilution series of the test substances (24 h cultivation at 25 °C for S. Infantis, 37 °C for other strains) or were directly cultivated to preform biofilms (18 h). For a positive control of bacterial growth, the inoculum was mixed with a pure sterile medium. Furthermore, the sterile medium was included in the plate as a marker of potential microbial contamination. To evaluate planktonic cells growth (MICPC80) and further growth of biofilm cells (MICBC80), the optical density of the content of the microtiter plates was measured spectrophotometrically at 625 nm before and after 24 h (for biofilm formation) of cultivation or before and after additional 20 h incubation with the tested compound (for preformed biofilm). The difference of A625nm was considered as a measure of the ability of cells to grow in the presence of the tested substances. To evaluate the inhibition of biofilm formation (MICBF80) and reduction in preformed biofilms (MICBR80), biomass was quantified using crystal violet staining, and its metabolic activity (MICBM80 and MICMPB80) was estimated by using the MTT (thiazyl tetrazolium bromide, Sigma-Aldrich, USA) reduction assay, both measured spectrophotometrically at 595 nm.
as §3, §4

S. aureus 1241 [2] = test: CLSM analysis, biofilm prevention; format: cell-based, Staphylococcus aureus; conditions: for Thickness (µm) MICBM80 / Thickness (µm) subCBM80: 24 h exposure; for Thickness (µm) MICBM80: substance at its MICBM80, mean ± SD; for Thickness (µm) subCBM80: substance at subinhibitory concentration, mean ± SD
Method: Biofilm prevention and removal analyses were performed using previously determined minimum inhibitory and subinhibitory concentrations for metabolic activity (MICBM80, subCBM80; MICMPB80, subCMPB80) of NAC, RLs, and UA specific for each tested strain. Selected concentrations were used to evaluate the inhibition of biofilm formation (biofilm prevention) and the reduction in previously formed biofilms (biofilm removal) for the same set of microorganisms, with the exception of S. Infantis, which was excluded from the analysis due to its inability to form biofilm in the selected microtiter plate. Biofilm prevention and removal were observed using CLSM with specific staining to distinguish between live and membrane-compromised cells. Images were analyzed to evaluate (i). the total volume of the biomass, (ii). ratios of live and membrane-compromised cells, and (iii). to calculate biofilm volume reduction for individual organisms after the respective treatment types. The total biofilm volume was normalized by the area of the well and expressed as an average biofilm thickness. Complete data are provided in Supplementary Materials (Tables S1–S8).
For both inhibition and reduction of biofilms, overnight cultures from BHI were diluted in TSB + 1% Glc to reach an absorbance of 0.08 to 0.1 at 625 nm. The inoculum (150 µL) was transferred into wells of the 96-well flat-bottomed Ibidiμ-Plate (Ibidi, Gräfelfing, Germany) and mixed with 150 µL of each of the three tested substances in technical quadruplicates, followed by incubation at 37 °C for 24 h. Simultaneously, the prepared bacterial suspensions were inoculated to an additional microtiter plate (200 µL) and allowed to form biofilm overnight (18 h at 37 °C). After the incubation, the content of the well was drained off, and 200 µL of each of the three tested substances was added to the plate, which was then incubated for an additional 20 h. The used concentrations of the substances represented the subinhibitory and minimum inhibitory concentrations for metabolic activity (subCBM80, MICBM80; subCMPB80, MICMPB80). Both setups contained a positive control of the bacterial growth (inoculum mixed with sterile TSB + 1% Glc medium) and a control monitoring microbial contamination (sterile medium). Non-treated wells were used as a positive control for comparison between non-treated and treated biofilm mass.
Prior to the imaging, the wells were stained with the LIVE/DEAD® BacLight™ Bacterial Viability Kit (Thermo Fisher Scientific, MA, USA) following the manufacturer’s guidelines and Drago et al.. Briefly, equal volumes of SYTO® 9 and propidium iodide were combined with the sterile distilled water to reach a final concentration of […]. The biofilm mass was stained using 300 µL of the staining solution per well followed by incubation at 37 °C in the dark for 15 min. Stained wells were washed once with sterile distilled water, which was then added to each well (300 µL). Images were acquired with an inverted Leica SP5 CLSM using a 1.25× dry objective (WD 3.7 mm, Z-resolution 27 µm, up to 24 Z-stacks per well) to visualize an entire well. Samples were kept at the cultivation conditions (37 °C, 5% CO2, 90% humidity) with an OkoLabs stage top environmental chamber (Oko Labs, PA, USA). Fluorophore excitation lasers and emission bandwidths were as follows: SYTO® 9 (ex/em 485/498 nm) 488 nm excitation, 495 to 550 nm emission collection; propidium iodide (ex/em 535/617 nm) 561 nm excitation, 595 to 650 nm emission collection. The laser beam scanned the visual field at a frequency of 600 Hz. The wells were captured in snapshots of 1024 × 1024 pixels representing the area of 153.76 mm^2.
All collected images were statistically evaluated to quantify biovolume utilizing the surface estimation procedure described in Parker et al.. […]

Compound | MICBM80 (S. aureus 1241 [1]) [µg/mL] | MICBM80 (S. aureus 816) [µg/mL] | MICBM80 (L. monocytogenes 149) | MICBM80 (L. monocytogenes 164) [µg/mL] | maximal achieved inhibition (MICBM80 not reached) (S. Infantis S59; within tested concentrations) [%] | MICBM80 (S. Infantis S59) [µg/mL] | Thickness (µm) MICBM80 (S. aureus 1241 [2]) [µm] | Thickness (µm) subCBM80 (S. aureus 1241 [2]) [µm] | proportion of membrane-compromised cells (S. aureus 1241 [2]; 24 h, MIC and subinhibitory concentration)
CC(=O)c1c(O)c(C)c(O)c2c1OC1=CC(=O)C(C(C)=O)C(=O)C12C (single isomer, unassigned; (+)) [UA, (+)-usnic acid] | 0.49 | 0.24 | 1.96 µg/mL | 1.96 | 47 | > 31.3 | 367 ± 40.5 | 392 ± 21.7 | –
CC(=O)N[C@@H](CS)C(=O)O [NAC, N-Acetyl-L-cysteine] | 6250 | 3130 | 12,500 µg/mL | 6250 | – | 6250 | 236 ± 50.5 | 212 ± 16.1 | up to 25%
